Data taken from US8758816B2, “Compositions comprising azelastine and methods of use thereof” (priority 2004, dated 2014).
Counter-ions that a name gives are not always drawn.

System: patients with seasonal allergic rhinitis (SAR)
Assay: MP 428 two-week randomized double-blind study: Total Nasal Symptom Score (TNSS), change from baseline
Assay type: in vivo, human
Set-up: key to Change from Baseline in AM TNSS, Mean / Change from Baseline in AM TNSS, LS Mean / Change from Baseline in AM TNSS, Median: TNSS sum of 4 symptoms each 0-3 (0=none, 3=severe); change from baseline
Conditions: for AUC of Change from Baseline in TNSS (AM and PM Combined), Mean / AUC of Change from Baseline in TNSS (AM and PM Combined), Median / AUC of Change from Baseline in TNSS (AM and PM Combined), LS Mean: Day 1 to Day 14; for AUC of Change from Baseline in TNSS (AM and PM Combined), LS Mean: ANCOVA
Procedure: A two-week, randomized, double-blind study, which evaluated the effects of the co-administration of ASTELIN® (azelastine hydrochloride (HCl)) and FLONASE® (fluticasone propionate) compared to either product alone in patients with seasonal allergic rhinitis (SAR) was conducted during the 2006 Texas mountain cedar season. After a 5-day placebo lead-in period, 151 patients with moderate-to-severe allergic rhinitis symptoms were randomized to either: (1) (49 total patients) ASTELIN® (azelastine hydrochloride (HCl)) plus placebo saline nasal spray 2 sprays per nostril, 15 minutes apart, twice daily (AM & PM); (2) (50 total patients) FLONASE® (fluticasone propionate) plus placebo saline nasal spray, 2 sprays per nostril, 15 minutes apart, once daily (AM) and two sessions of placebo saline nasal spray, 2 sprays per nostril, 15 minutes apart (PM); or (3) (52 total patients) the co-administration of ASTELIN® (azelastine hydrochloride (HCl)) 2 sprays per nostril plus FLONASE® (fluticasone propionate) 2 sprays per nostril (AM), 15 minutes apart, and ASTELIN® (azelastine hydrochloride (HCl)) 2 sprays per nostril plus placebo saline nasal spray, 15 minutes apart, (PM) for a 2-week double-blind treatment period.
The primary efficacy variable was the change from baseline in the Total Nasal Symptom Score (TNSS), which comprised sneezing, itchy nose, runny nose, and nasal congestion (individual symptoms scores were assigned a value between 0 and 3, where 0=no symptoms and 3=severe symptoms). This study was not statistically designed to assess the differences between ASTELIN® and FLONASE®.

[1] = Day 12, Per-Protocol Population
[2] = Day 13, Intent-to-Treat Population
[3] = Day 13, Per-Protocol Population
[4] = Day 14, Intent-to-Treat Population
[5] = Day 14, Per-Protocol Population
[6] = Overall (Day 2 to Day 14), Intent-to-Treat Population
[7] = Overall (Day 2 to Day 14), Per-Protocol Population

CN1CCCC(n2nc(Cc3ccc(Cl)cc3)c3ccccc3c2=O)CC1 (racemic) [Azelastine, (±)-1-(2H)-phthalazinone, 4-[(4-chlorophenyl)methyl]-2-(hexahydro-1-methyl-1H-azepin-4-yl)-, mono-hydrochloride]
Percent Change from Baseline in PM TNSS, Median (Day 12, Intent-to-Treat Population): −25.00% | Change from Baseline in AM and PM Combined TNSS, LS Mean (Day 12, Intent-to-Treat Population, ANCOVA model): −5.46 | Change from Baseline in AM and PM Combined TNSS, LS Mean [1]: −5.40 | Change from Baseline in AM and PM Combined TNSS, Mean [1]: −5.54 | Change from Baseline in AM and PM Combined TNSS, Median [1]: −5.00 | Percent Change from Baseline in AM and PM Combined TNSS, LS Mean [1]: −27.82% | Percent Change from Baseline in AM and PM Combined TNSS, Mean [1]: −28.25% | Percent Change from Baseline in AM and PM Combined TNSS, Median [1]: −25.86% | Change from Baseline in AM TNSS, LS Mean [2]: −2.55 | Change from Baseline in AM TNSS, Mean [2]: −2.50 | Change from Baseline in AM TNSS, Median [2]: −1.80 | Change from Baseline in AM and PM Combined TNSS, Mean [2]: −5.70 | Change from Baseline in AM and PM Combined TNSS, Median [2]: −5.30 | Change from Baseline in PM TNSS, LS Mean [2]: −3.11 | Change from Baseline in PM TNSS, Mean [2]: −3.21 | Change from Baseline in PM TNSS, Median [2]: −3.00 | Percent Change from Baseline in AM TNSS, LS Mean [2]: −26.36% | Percent Change from Baseline in AM TNSS, Mean [2]: −26.20% | Percent Change from Baseline in AM TNSS, Median [2]: −18.37% | Percent Change from Baseline in AM and PM Combined TNSS, LS Mean [2]: −29.24% | Percent Change from Baseline in AM and PM Combined TNSS, Mean [2]: −29.35% | Percent Change from Baseline in AM and PM Combined TNSS, Median [2]: −26.15% | Percent Change from Baseline in PM TNSS, LS Mean [2]: −32.19% | Percent Change from Baseline in PM TNSS, Mean [2]: −32.27% | Percent Change from Baseline in PM TNSS, Median [2]: −33.33% | Change from Baseline in AM and PM Combined TNSS, LS Mean (Day 13, Intent-to-Treat Population, ANCOVA model): −5.65 | Change from Baseline in AM and PM Combined TNSS, LS Mean [3]: −5.59 | Change from Baseline in AM and PM Combined TNSS, Mean [3]: −5.70 | Change from Baseline in AM and PM Combined TNSS, Median [3]: −5.30 | Percent Change from Baseline in AM and PM Combined TNSS, LS Mean [3]: −29.06% | Percent Change from Baseline in AM and PM Combined TNSS, Mean [3]: −29.35% | Percent Change from Baseline in AM and PM Combined TNSS, Median [3]: −26.15% | Change from Baseline in AM TNSS, LS Mean [4]: −2.56 | Change from Baseline in AM TNSS, Mean [4]: −2.52 | Change from Baseline in AM TNSS, Median [4]: −2.00 | Change from Baseline in AM and PM Combined TNSS, Mean [4]: −5.62 | Change from Baseline in AM and PM Combined TNSS, Median [4]: −5.30 | Change from Baseline in PM TNSS, LS Mean [4]: −3.00 | Change from Baseline in PM TNSS, Mean [4]: −3.10 | Change from Baseline in PM TNSS, Median [4]: −2.80 | Percent Change from Baseline in AM TNSS, LS Mean [4]: −26.51% | Percent Change from Baseline in AM TNSS, Mean [4]: −26.44% | Percent Change from Baseline in AM TNSS, Median [4]: −20.00% | Percent Change from Baseline in AM and PM Combined TNSS, LS Mean [4]: −28.70% | Percent Change from Baseline in AM and PM Combined TNSS, Mean [4]: −28.86% | Percent Change from Baseline in AM and PM Combined TNSS, Median [4]: −25.00% | Percent Change from Baseline in PM TNSS, LS Mean [4]: −31.07% | Percent Change from Baseline in PM TNSS, Mean [4]: −31.14% | Percent Change from Baseline in PM TNSS, Median [4]: −28.57% | Change from Baseline in AM and PM Combined TNSS, LS Mean (Day 14, Intent-to-Treat Population, ANCOVA model): −5.56 | Change from Baseline in AM and PM Combined TNSS, LS Mean [5]: −5.50 | Change from Baseline in AM and PM Combined TNSS, Mean [5]: −5.62 | Change from Baseline in AM and PM Combined TNSS, Median [5]: −5.30 | Percent Change from Baseline in AM and PM Combined TNSS, LS Mean [5]: −28.52% | Percent Change from Baseline in AM and PM Combined TNSS, Mean [5]: −28.86% | Percent Change from Baseline in AM and PM Combined TNSS, Median [5]: −25.00% | AUC of Change from Baseline in TNSS (AM and PM Combined), Mean (Intent-to-Treat Population): −60.38 | AUC of Change from Baseline in TNSS (AM and PM Combined), Median (Intent-to-Treat Population): −56.00 | AUC of Change from Baseline in TNSS (AM and PM Combined), LS Mean (Intent-to-Treat Population): −59.72 | Change from Baseline in AM TNSS, LS Mean [6]: −2.22 | Change from Baseline in AM TNSS, Mean [6]: −2.21 | Change from Baseline in AM TNSS, Median [6]: −1.86 | Change from Baseline in AM and PM Combined TNSS, Mean [6]: −4.73 | Change from Baseline in AM and PM Combined TNSS, Median [6]: −4.24 | Change from Baseline in PM TNSS, LS Mean [6]: −2.57 | Change from Baseline in PM TNSS, Mean [6]: −2.51 | Change from Baseline in PM TNSS, Median [6]: −2.38 | Percent Change from Baseline in AM TNSS, LS Mean [6]: −23.13% | Percent Change from Baseline in AM TNSS, Mean [6]: −23.29% | Percent Change from Baseline in AM TNSS, Median [6]: −19.23% | Percent Change from Baseline in AM and PM Combined TNSS, LS Mean [6]: −24.78% | Percent Change from Baseline in AM and PM Combined TNSS, Mean [6]: −24.47% | Percent Change from Baseline in AM and PM Combined TNSS, Median [6]: −24.26% | Percent Change from Baseline in PM TNSS, LS Mean [6]: −26.45% | Percent Change from Baseline in PM TNSS, Mean [6]: −25.39% | Percent Change from Baseline in PM TNSS, Median [6]: −21.68% | Change from Baseline in AM and PM Combined TNSS, LS Mean (Overall (Day 2 to Day 14), Intent-to-Treat Population, ANCOVA model): −4.76 | Change from Baseline in AM and PM Combined TNSS, LS Mean [7]: −4.73 | Change from Baseline in AM and PM Combined TNSS, Mean [7]: −4.73 | Change from Baseline in AM and PM Combined TNSS, Median [7]: −4.24 | Percent Change from Baseline in AM and PM Combined TNSS, LS Mean [7]: −24.72% | Percent Change from Baseline in AM and PM Combined TNSS, Mean [7]: −24.47% | Percent Change from Baseline in AM and PM Combined TNSS, Median [7]: −24.26% | AUC of Change from Baseline in TNSS (AM and PM Combined), Mean (Per-Protocol Population): −60.38 | AUC of Change from Baseline in TNSS (AM and PM Combined), Median (Per-Protocol Population): −56.00 | AUC of Change from Baseline in TNSS (AM and PM Combined), LS Mean (Per-Protocol Population): −59.23
